Experimental data: publication PMC2225441, “Partial Restoration of Mutant Enzyme Homeostasis in Three Distinct Lysosomal Storage Disease Cell Lines by Altering Calcium Homeostasis” (PLoS Biology, 2008)

Columns and labels:
[1] = test system: cytoplasmic and ER lumenal chaperones; experiment: Western blot of chaperones in L444P GC fibroblasts; format: cell-based, human; conditions: 10 μM
Protocol: Total cell protein was measured using the Micro BCA assay reagent. Endo H (New England Biolabs #P0703) was used to digest the cell lysates according to the company instructions. The cell lysates containing equal amount of total protein were separated by 10% SDS-PAGE. Western blot analysis was performed with proper antibodies. Mouse monoclonal anti-GC 8E4 [57] was kindly provided by Klaus-Peter Zimmer (Children's Hospital of the University of Münster, Münster, Germany). Mouse monoclonal anti-GC 2E2 was from Novus Biologicals (#H00002629-M01). Antibodies directed against calnexin (#SPA-860), calreticulin (#SPA-601), Hsp40 (#SPA-400), Hsp70 (#SPA-812), and Hsp90 (#SPA-830) were from Stressgen. Antibodies directed against BiP (#SC-13968) and GRP94 (#SC-11402) were from Santa Cruz Biotechnology. Mouse monoclonal anti-β actin AC-15 was from Sigma (#A1978). Secondary antibodies (#31430 for goat anti-mouse and #31460 for goat anti-rabbit) were from Pierce. Bands were visualized using the SuperSignal West Pico Chemiluminescent Substrate (Pierce #34078) or SuperSignal West Femto Maximum Sensitivity Substrate (Pierce #34095).

L444P GC = target: T1, L444P GC (Homo sapiens, UniProt P04062, L483P); experiment: lysed L444P fibroblasts incubated directly with test substance, lysed cell GC activity assay; format: biochemical; conditions: 0.01 to 1000 μM
T1 construct: homozygous L444P GC patient–derived fibroblasts; host or cells: homozygous L444P Gaucher patient skin fibroblasts
T1 sequence (P04062 40-536 L483P): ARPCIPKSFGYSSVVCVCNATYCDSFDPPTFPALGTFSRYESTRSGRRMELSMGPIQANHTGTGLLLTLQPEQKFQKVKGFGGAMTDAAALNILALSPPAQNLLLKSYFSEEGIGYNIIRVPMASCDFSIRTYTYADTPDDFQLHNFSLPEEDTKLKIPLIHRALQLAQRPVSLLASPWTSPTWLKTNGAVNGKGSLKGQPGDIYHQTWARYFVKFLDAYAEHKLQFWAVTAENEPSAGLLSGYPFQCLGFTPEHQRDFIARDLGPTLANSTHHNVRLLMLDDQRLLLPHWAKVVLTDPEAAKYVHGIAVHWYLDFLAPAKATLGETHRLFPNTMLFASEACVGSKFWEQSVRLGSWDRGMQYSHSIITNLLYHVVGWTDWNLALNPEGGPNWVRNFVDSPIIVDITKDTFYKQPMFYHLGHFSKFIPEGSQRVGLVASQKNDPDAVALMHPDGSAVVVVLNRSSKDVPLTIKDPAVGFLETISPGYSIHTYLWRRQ
Protocol: (§1) The intact cell GC activity assay has been previously described. Briefly, cells were plated into 48-well assay plates (500 μl per well). After cell attachment, the media was replaced by media containing small molecules. Media was changed every 3 d. After incubation at 37 °C for the indicated amount of time, the intact cell GC activity assay was performed. The monolayers were washed by DPBS. The reaction was started by the addition of 150 μl of 3 mM 4-methylumbelliferyl β-D-glucopyranoside in 0.2 M acetate buffer (pH 4.0) to each well, followed by incubation at 37 °C for 1–7 h. CBE was used as a control to evaluate the extent of nonspecific GC activity. […] Liberated 4-methylumbelliferone was measured (excitation 365 nm, emission 445 nm) with a SpectraMax Gemini plate reader (Molecular Devices). The lysed cell GC activity assay has been previously described. […] Total cell protein was measured using the Micro BCA assay reagent (Pierce #23235). Thirty μg of total cell protein was assayed for the GC activity in 100 μl of 0.1 M acetate buffer (pH 5.0) containing 3 mM 4-methylumbelliferyl β-D-glucopyranoside in the presence of 0.15% Triton X-100 (v/v, Fisher) and 0.15% taurodeoxycholate (w/v, Calbiochem). CBE was used as a control to evaluate the extent of nonspecific GC activity. […] The GC activity assay for recombinant WT GC enzymes has been previously described. […]

GC mRNA = experiment: quantitative RT-PCR of GC mRNA in L444P GC fibroblasts; format: cell-based, human; conditions: 10 μM; 6 h, 12 h, 1 d, 3 d, and 5 d
Protocol: (§2) Total RNA was extracted from the cells using RNeasy Mini Kit (Qiagen #74104). cDNA was synthesized from 500 ng of total RNA using QuantiTect Reverse Transcription Kit (Qiagen #205311). Quantitative PCR reactions were performed using QuantiTect SYBR Green PCR Kit (Qiagen #204143) and corresponding primers in the ABI PRISM 7900 system (Applied Biosystems). The forward and reverse primers for GC, Hsp40, Hsp70, Hsp90, HIP, HOP, BiP, GRP94, calnexin (CNX), and calreticulin (CRT), and an endogenous housekeeping gene large ribosomal protein (RiboP) are listed in Table S1. Samples were heated for 15 min at 95 °C and amplified in 45 cycles of 15 s at 94 °C, 30 s at 59 °C, and 30 s at 72 °C. Analysis was done using SDS2.1 software (Applied Biosystems). Threshold cycle (CT) was extracted from the PCR amplification plot. The ΔCT value was used to describe the difference between the CT of a target gene and the CT of the housekeeping gene: ΔCT = CT (target gene) – CT (housekeeping gene). The relative mRNA expression level of a target gene of diltiazem-treated cells was normalized to that of untreated cells: Relative mRNA expression level = 2 exp [–(ΔCT (treated cells) – ΔCT (untreated cells))].

GC = GC activity in Gaucher patient-derived fibroblasts, effective culture concentration; format: cell-based, human
Protocol: as §1

[2] = cited from earlier work
S66W/V131M SGSH = experiment: intact cell SGSH activity assay in S66W/V131M MPS cells; format: cell-based, human; conditions: 50 μM; 5-d treatment; calculated from literature specific activity of S66W [27]
[3] = test system: cytoplasmic and ER lumenal chaperones; format: cell-based, human; conditions: 10 μM, 7 d, Figure S5
Protocol: as §2
Hsp40, Hsp70, Hsp90, HIP, HOP, BiP, GRP94, calnexin (CNX), and calreticulin (CRT) were probed using corresponding primer pairs. Large ribosomal protein (RiboP) served as a housekeeping gene control.

Ca^2+ channel = conditions: previously reported; read-out: Ca^2+ channel blocker IC50; cited from earlier work
N370S/84GG GC = experiment: GC activity in compound heterozygous N370S/84GG GC fibroblasts; format: cell-based, human; conditions: 10 μM; 5-d treatment

SMILES: COc1ccc([C@@H]2Sc3ccccc3N(CCN(C)C)C(=O)[C@@H]2OC(C)=O)cc1 [diltiazem]
- protein expression levels of BiP, Hsp40, and Hsp90 ([1]; 7-d treatment): increased protein expression levels
- protein expression levels of GRP94, Hsp70, calnexin, and calreticulin ([1]; 4 d and 7 d): not changed significantly
- GC inhibition in lysed L444P fibroblasts (L444P GC): No significant GC inhibition was observed
- GC mRNA expression level vs untreated (GC mRNA): No significant differences
- culture concentration of best efficacy at increasing GC activity (GC): 10 µM
- lowest effective cell culture media concentration (GC; Figures 2 and 3): 0.1 to 1 µM
- bioavailable concentration in blood plasma [2]: bioavailable in the μM concentration range
- S66W/V131M sulfamidase activity as % of WT sulfamidase activity (S66W/V131M SGSH): ≈ 30%
- Hsp40 mRNA expression level [3]: similarly increased
- BiP and Hsp90 mRNA expression levels ([3]; compared with L444P cells): less of an increase
- IC50 (Ca^2+ channel): 980 nM
- N370S/84GG GC activity as % of cellular WT GC activity (N370S/84GG GC): ≈ 36%
